Test results taken from patent publication US6713051B2, “Antiperspirant or deodorant compositions” (Unilever Home & Personal Care USA division of Conopco, Inc., priority 2001, dated 2004).

Molecular target: T1, human PPARα (Homo sapiens, UniProt Q07869)
T1 construct: The coding region of a human PPARα cDNA was inserted downstream of the CMV promoter; expressed in transfected cells; host or cells: Cos-7 cells, transient transfection (pcDNA3.1(−)-PPARα, pRSV-RXRα, 3xPPRE-TK-luc reporter, pRL-TK)
T1 sequence (Q07869 1-468): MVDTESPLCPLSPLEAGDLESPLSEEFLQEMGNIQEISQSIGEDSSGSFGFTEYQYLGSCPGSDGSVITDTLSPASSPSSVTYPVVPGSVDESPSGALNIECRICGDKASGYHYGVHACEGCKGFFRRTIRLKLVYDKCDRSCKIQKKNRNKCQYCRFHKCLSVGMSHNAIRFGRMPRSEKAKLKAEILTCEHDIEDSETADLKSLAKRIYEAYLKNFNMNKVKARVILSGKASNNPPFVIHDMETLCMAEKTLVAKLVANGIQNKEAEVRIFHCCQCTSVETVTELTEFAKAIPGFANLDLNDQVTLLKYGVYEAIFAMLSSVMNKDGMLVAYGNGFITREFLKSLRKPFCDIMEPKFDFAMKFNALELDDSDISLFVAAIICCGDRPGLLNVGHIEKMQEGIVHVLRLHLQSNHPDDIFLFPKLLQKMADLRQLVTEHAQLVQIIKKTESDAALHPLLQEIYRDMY
T1 sequence (P19793 1-462 partner): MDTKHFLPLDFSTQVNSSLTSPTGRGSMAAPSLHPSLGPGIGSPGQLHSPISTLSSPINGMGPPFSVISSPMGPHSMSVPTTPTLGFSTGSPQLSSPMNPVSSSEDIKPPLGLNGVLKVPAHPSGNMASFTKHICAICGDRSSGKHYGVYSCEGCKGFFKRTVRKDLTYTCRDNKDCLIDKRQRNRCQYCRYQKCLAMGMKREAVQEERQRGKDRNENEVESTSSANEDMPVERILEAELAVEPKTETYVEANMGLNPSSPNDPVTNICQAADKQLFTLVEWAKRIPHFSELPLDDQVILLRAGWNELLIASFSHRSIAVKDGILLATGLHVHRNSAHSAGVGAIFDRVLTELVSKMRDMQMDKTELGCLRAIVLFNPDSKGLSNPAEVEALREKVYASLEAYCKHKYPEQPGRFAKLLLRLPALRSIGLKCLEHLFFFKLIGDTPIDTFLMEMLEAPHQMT
Test: PPARα reporter gene assay (firefly luciferase, transiently transfected Cos-7 cells)
Assay type: cell-based

- Result at (lowest administration level at which super or MS activity was achieved): 25 μm
- Pass at (lowest tested administration level at which the test material passed) (pass = activation greater than oleic acid at 100 μM, commonly >1.57 times vehicle control, 24 h treatment): 10 μm
SMILES: CC\C=C/C=C/C=C/C=C\CCCCCCCC(=O)O [cis parinaric acid, cis-parinaric acid]
- Result (superior activity class achieved) (class reached): super (superior activity [super] (50% higher—at least 2.25 times PPARα activation))
